Measured values published in patent US7744867B2, “PTPase inhibitors and method of using same” (The Cleveland Clinic Foundation, priority 2001, dated 2010).

Key:
[1] = tested on: MDA231 cells (Breast cancer); assay: Growth inhibition of human tumor cell lines (MTT); assay type: cell-based
Source text: (§1) FIG. 9 illustrates growth inhibition of human cell lines of non-hematopoietic malignancies by sodium stibogluconate and/or IFNα. Percentage of growth inhibition of WM9 (A), DU145 (B), MDA231 (C) and WiT49-N1 (D) in the absence or presence of various amounts of sodium stibogluconate and/or IFNα (1,000 u/ml) in day 6 cultures as measured by MTT assays.

[2] = tested on: DU145 cells (Prostate cancer); assay: Growth inhibition of human tumor cell lines (MTT); assay type: cell-based
Source text: as §1

WM9 cells (Melanoma) = assay: Growth inhibition of human tumor cell lines (MTT); assay type: cell-based
Source text: as §1
FIG. 10 illustrates sodium stibogluconate augments both IFNα- and IFNβ-induced growth inhibition of WM9 cells. Percentage of growth inhibition of WM9 cells in the absence or presence of various amounts of sodium stibogluconate, IFNα and IFNβ in day 6 cultures as measured by MTT assays. The data illustrates that sodium seems to interact with IFNα and IFNβ in a synergistic manner in growth inhibition of WM9 cells. Data from MTT antiproliferative assays was expressed as percent control growth (PCG) of treated cells, compared to untreated cells (100%). Median effect analysis (inset graphs), similar to isobol analysis, defined drug interaction in the IFNα+sodium stibogluconate and the IFNβ+sodium stibogluconate combinations as synergistic at all doses tested, characterized by a combination index (CI) of less than 1. Additivity is indicated by CI=1, and antagonism occurs when CI>1. Fraction affected (fa)=(100−PCG)/100.
Drug Interaction Analysis. Median effect analysis, which provides the most general form of studying the interactions between drugs, was utilized to analyze the interaction between sodium stibogluconate and IFNα or IFNβ. Since details regarding the mode of IFN and sodium stibogluconate interaction are not fully understood, and whether or not they act in a mutually exclusive fashion, we chose the most general analysis available. Dose response curves were generated for each drug alone, and also the combinations. Median effect plots were generated, which determined m and Dm values for IFN alone, sodium stibogluconate alone, and the combination. The combination index (CI) was determined and plotted vs. fraction affected (FA). Data were analyzed in both modes, mutually exclusive and mutually nonexclusive. […]

DS cells (lymphoma) = assay: Growth inhibition of human tumor cell lines (MTT); assay type: cell-based; settings: day 3; IFNα 1,000 u/ml
Experimental: FIG. 8 illustrates growth inhibition of human cell lines of hematopoietic malignancies by sodium stibogluconate and/or IFNα: A and B. Growth of DS and DR cells cultured in the absence or presence of various amounts of sodium stibogluconate and/or IFNα (1,000 u/ml) for 3 days was measured by MTT assays; C. Percentage of growth inhibition of DR cells calculated from data in B; D. Percentage of growth inhibition of DR cells by IFNα (1,000 u/ml) and various amounts of sodium stibogluconate in day 6 cultures measured by MTT assays; E. Percentage of growth inhibition of U266 cells by IFNα (1,000 u/ml) and various amounts of sodium stibogluconate in day 6 cultures as measured by MTT assays.

Leishmaniasis = settings: cited from earlier work
TF-1 cells = assay: Proliferation of TF-1 cells with GM-CSF and IFNα (MTT); assay type: cell-based, human; settings: at 50 μg/ml; GM-CSF 5-40 ng/ml
Experimental: FIG. 7 illustrates that sodium stibogluconate augments the opposite effects of GM-CSF and IFNα on TF-1 cell growth: A. Proliferation of TF-1 cells cultured in the presence of various amounts of GM-CSF and with or without sodium stibogluconate for three days was measured by MTT assays; B. Proliferation of TF-1 cells cultured in the presence of GM-CSF (50 ng/ml) and various amounts of IFNα with or without sodium stibogluconate (50 μg/ml) for three days was measured by MTT assays; C. The results in B shown as percentage inhibition of cell growth; D. Proliferation of TF-1 cells in the presence of GM-CSF (20 ng/ml) and various amounts of sodium stibogluconate for 6 days was measured by MTT assays; E. Proliferation of TF-1 cells in the presence of GM-CSF (20 ng/ml)/IFNα (1,000 u/ml) and various amounts of sodium stibogluconate for 6 days was measured by MTT assays.
The murine hematopoietic cell line Baf3 was maintained in RPMI 1640 medium supplemented with 10% fetal calf serum (FCS) and murine IL-3 (20 units/ml) as described previously. Human myeloid cell line TF-1 was maintained in RPMI 1640 supplemented with 10% FCS and 40 ng/ml of recombinant human GM-CSF as described previously. […] The cell numbers in proliferation assays were determined by an MTT assay or by microscopic cell counting as indicated.

[3] = tested on: Stat1 tyrosine phosphorylation; assay: IFNα-induced Stat1 tyrosine phosphorylation in cancer cell lines; assay type: cell-based, human
Experimental: Induction of Stat1 tyrosine phosphorylation by IFNα and/or sodium stibogluconate. For induction of Stat1 tyrosine phosphorylation by IFNα in the absence or presence of sodium stibogluconate, cells grown in 10% FCS RPMI 1640 medium at 37° C. were stimulated with IFNα (50 u/ml) for various time points and treated with or without sodium stibogluconate for 5 minutes prior to termination by lysing the cells in cold lysis buffer (1% NP-40; 50 mM Tris, pH 7.4; 100 mM NaCl; 1 mM EDTA, 10% glycerol, 10 mM sodium molybdic acid and 4 mM AEBSF).
Cell lysate preparation, SDS-PAGE, and Western blotting. Cell lysates were prepared by lysing cells in cold lysis buffer for 30 min and cleared by centrifuging at 14,000 rpm at 4° C. for 15 min. For SDS-PAGE, cell lysates were mixed with equal volume of 2×SDS-PAGE sample buffer, heated at 90° C. for 5 min and separated in 10% SDS-PAGE gels. Cellular proteins in SDS-PAGE gels were transferred to nitrocellulose membrane (Schleicher & Schuell), blocked in 5% milk, probed with antibodies and detected by using an enhanced chemiluminescence kit (ECL, Amersham).

Compound | % of growth inhibition by day 6 (±s.d.) ([1]; MDA231, SS 12.5 μg/ml, IFNα 1,000 u/ml, alone or combined) | growth inhibition of MDA231 breast cancer cells ([1]; drug at 25 μg/ml, agents individually or in combination) | % of growth inhibition by day 6 (±s.d.) ([2]; SS 12.5 μg/ml, IFNα 1,000 u/ml, alone or combined) | % of growth inhibition by day 6 (±s.d.) (WM9 cells (Melanoma); WM9, SS 12.5 μg/ml, IFNα 1,000 u/ml, alone or combined) | growth inhibition of WM-9 melanoma cells (WM9 cells (Melanoma); drug at 25-100 μg/ml, agents individually or in combination) | activity against DS cells (DS cells (lymphoma)) | efficacy in Leishmaniasis (Leishmaniasis; 20 mg Sb/kg body weight per day i.m. daily for 10-14 days) | known toxicity profile (Leishmaniasis; human, in vivo) | single dose used without serious toxicity (Leishmaniasis; human, in vivo) | cell killing as a single agent ([1]; MDA231, 50 μg/ml and 100 μg/ml, day 6 culture) | cell killing as a single agent ([2]; 50 μg/ml and 100 μg/ml, day 6 culture) | GM-CSF-induced proliferation of TF-1 cells (TF-1 cells) | cell killing as a single agent (WM9 cells (Melanoma); WM9, 50 μg/ml and 100 μg/ml, day 6 culture) | IFNα-induced Stat1 tyrosine phosphorylation relative to control ([3]; DR cells, 10 μg/ml, 30 min post-stimulation) | Stat1 tyrosine phosphorylation by the drug itself ([3]; DR cells, absence of IFNα) | IFNα-induced Stat1 tyrosine phosphorylation ([3]; DU145 cells, 5 hours post-stimulation) | IFNα-induced Stat1 tyrosine phosphorylation ([3]; WM9 cells, 5 hours post-stimulation) | IFNα-induced Stat1 tyrosine phosphorylation ([3]; WM35 cells) | IFNα-induced Stat1 tyrosine phosphorylation ([3]; WiT49-N1 cells)
IFNα | 79 (2) % | 79% | 70 (5) % | 58 (2) % | 58% | almost completely eliminated | – | – | – | – | – | – | – | – | – | – | – | – | –
O.O.O.O.O.O.O.O.O.O=C([O-])[C@@H]1[O][Sb]2([O-])([O][Sb]34([OH])[O][C@H]([C@H](O)CO)[C@H]([O]3)[C@H](C(=O)[O-])[O]4)[O][C@H]([C@H](O)CO)[C@@H]1[O]2.[Na+].[Na+].[Na+] [sodium stibogluconate] | – | – | – | – | – | modest activity | 70-100% | modest cardiac toxicity and leukopenia | up to 143 mg Sb/kg | killed all cells | killed all cells | augmented | killed all cells | approximately two | failed to induced | Enhanced | Enhanced | failed to enhance | failed to enhance
